Reference: patent US10908141B2, “Methods and kits for detecting non-luminescent or weakly luminescent metals” (New York University, priority 2012, dated 2021)
“And” between values parts separate entries of the source, which are not always exact repeats. Identical values can stand only once.

Key:
[1] = Xylenol orange determination of free Gd3+ after chelation; format: physicochemical
Experimental: When xylenol orange coordinates Gd^3+ ion, absorption at 573 decreases relative to that at 433.
For determination of free Gd^3+ in solution after chelation. 3 mg xylenol orange was dissolved in 50 mM acetic acid pH 5.8, and 90 μL added to each well of a clear 96 well plate. Triplicate samples of 10 μL 10^−3M cs124-DTPA were added to each well, and increasing amounts of […] titrated in. Absorption was read at 573 and 433, against a standard of known Gd^3+ concentration.

[2] = Diffusivity by dynamic light scattering (DLS); format: physicochemical
[3] = mouse plasma, 0.1 mmol/kg via saphenous vein, bi-exponential fit
[4] = Stability of the chelate in solution over time (Tb/Gd metal exchange); format: physicochemical; details: 5, 30, and 60 minutes
From the text: To determine the stability of the chelate in solution as a function of time, readings were made at different time points. If there is an exchange of Tb with Gd on the sensitized chelate, then a dramatic increase in signal should be observed. The intensity of cs124-DTPA-Tb is 10000 fold higher than the equivalent concentration of cs124-DTPA-Gd.

[5] = Absorption and fluorescence spectroscopy (plate reader / nanodrop); format: physicochemical
[6] = Relaxivity r1
[7] = in vivo; cited from earlier work

Q: What does the source list for “carbostyril-124-diethylenetriaminepentaacetic acid-Gadolinium [cs124-DTPA-Gd]”?
A: Free Gd3+ ion concentration ([1]; incubated with 50 mM xylenol orange): 0.06%; Concentration of chelated complex above which free Gd3+ is detectable ([1]; incubated with xylenol orange in 50 mM acetic acid pH 5.8): above 1.75 mM; Diffusivity D [2]: 2.5 × 10^−6 cm^2/s; Characteristic distribution time [3]: 13.2 ± 0.543 min and 14 min; Elimination time [3]: 92.2 ± 11.7 min and 90 min; Change of intensity over time (metal exchange between sensitized and unsensitized chelates) [4]: No significant change; Absorbance Amax [5]: 328 nm; Fluorescence Emmax [5]: 375 nm; Fluorescence Exmax [5]: 341 nm; Relaxivity compared with DTPA-Gd [6]: the same as that of DTPA-Gd; Relaxivity r1 [6]: 3.32 ± 1.4 M⁻¹ ms⁻¹

Q: With Cc1cc(=O)[nH]c2cc(N)ccc12 [cs124, carbostyril124, reference compound] as the compound, how does the “Absorbance Amax” value [5] read?
A: 328 nm

Q: What about the “Fluorescence Emmax” value [5] of the same compound?
A: 370 nm

Q: What about the “Fluorescence Exmax” value [5] of the same compound?
A: 310 nm

Q: What does the source list for [Gd+3] [Gd3+, reference compound]?
A: Diffusivity D [2]: 8.0 × 10^−6 cm^2/s; Relaxivity r1 [6]: 9.16 ± 0.96 M⁻¹ ms⁻¹

Q: Which Distribution half-life [7] does the source give for O=C([O-])CN(CCN(CC(=O)[O-])CC(=O)O)CCN(CC(=O)[O-])CC(=O)O.[Gd+3] [Magnevist ®, gadolinium-diethylenetriaminepentaacetic acid] here?
A: 12 min

Q: What about the “Distribution time (manufacturer's data)” value [7] of the same compound?
A: 12.2 ± 7.8 min

Q: What about the “Elimination time (manufacturer's data)” value [7] of the same compound?
A: 96.0 ± 7.8 min

Q: What about the Plasma clearance half-life [7] of the same compound?
A: approximately 81 min

Q: What about the “Relaxivity r1” value [6] of the same compound?
A: 3.4 M⁻¹ ms⁻¹
